# Legend:
# [1] = humans with psoriasis, topical betamethasone dipropionate 0.05% spray or lotion BID for 15 days; majority of subjects not measurable; cited from earlier work
# [2] = cited from earlier work
# [3] = in vivo; conditions: male, Merino, sheep, in vivo
# Experimental: The control article was 0.9% saline.
# Blood was collected (via a jugular vein cannula inserted during surgery) during the 10-day post-dose phase for pharmacokinetics, hematology, clinical chemistry, glucose, and morning cortisol analysis.
# Because of the variability in the volume of the sinus in sheep, the total volume varied from 5 to 15 mL. Doses calculated by body weight and body surface area (BSA) are also shown.
# [4] = test system: Pseudomonas aeruginosa; conditions: cited from earlier work
# [5] = test system: Streptococci, Staphylococci, Gardnerella vaginalis, and Corynebacteria; conditions: cited from earlier work
# [6] = Forced degradation of fluticasone propionate, percent recovery by HPLC; format: physicochemical
# Experimental: A similar analysis was performed of the 0.005% fluticasone propionate cream (lot #2021-07-01).
# [7] = Recovery of force-degraded fluticasone propionate spiked into placebo and of active cream, HPLC; format: physicochemical; conditions: Spiked into placebo
# [8] = Betamethasone plasma concentration, Mean
# [9] = Individual betamethasone plasma concentrations
smiles,measurement,setting,value
"CCC(=O)OCC(=O)[C@@]1(OC(=O)CC)[C@@H](C)C[C@H]2[C@@H]3CCC4=CC(=O)C=C[C@]4(C)[C@@]3(F)[C@@H](O)C[C@@]21C [Betamethasone dipropionate, 9-Fluoro-11β,17,21-trihydroxy-16β-methylpregna-1,4-diene-3,20-dione 17,21-dipropionate]",plasma concentration,[1],< 0.005 ng/mL
same,Biological Half Life,[2],36-54 Hours
"C[C@H]1C[C@H]2[C@@H]3CCC4=CC(=O)C=C[C@]4(C)[C@@]3(F)[C@@H](O)C[C@]2(C)[C@@]1(O)C(=O)CO [Betamethasone, betamethasone]",AUC(0-inf),[3],35.2 ± 8.3 ng·h/mL
same,AUC(0-t),[3],33.5 ± 8.9 ng·h/mL
same,Cmax,[3],0.98 ± 0.397 ng/mL
same,Tmax,[3],24 h
same,plasma levels detected through,[3],3 days post-dose
same,time of maximum plasma levels,[3],about 24 hr post-dose
same,concentration at 0 h,[3]; [8],0 ng/mL
same,concentration at 0.5 h,[3]; [8],0.152 ng/mL
same,concentration at 1 h,[3]; [8],0.307 ng/mL
same,concentration at 2 h,[3]; [8],0.518 ng/mL
same,concentration at 6 h,[3]; [8],0.74 ng/mL
same,concentration at 24 h,[3]; [8],0.964 ng/mL
same,concentration at 48 h,[3]; [8],0.223 ng/mL
same,concentration at 72 h,[3]; [8],0.071 ng/mL
same,concentration at 0 h,[3]; [9],0 ng/mL
same,concentration at 48 h,[3]; [9],0.229 ng/mL
"C[C@H]1C[C@@H]2[C@H]([C@@H](O)C[C@@]3(C)[C@H]2CC[C@]3(O)C(=O)CO)[C@@]2(C)C=CC(=O)C=C12 [Methyl-prednisolone, methylprednisolone]",Biological Half Life,[2],18-36 Hours
Clc1ccccc1C(c1ccccc1)(c1ccccc1)n1ccnc1 [clotrimazole],effect on Pseudomonas aeruginosa,[4],reduction
same,antibacterial activity,[5],antibacterial activity
CCC(=O)O[C@]1(C(=O)SCF)[C@H](C)C[C@H]2[C@@H]3C[C@H](F)C4=CC(=O)C=C[C@]4(C)[C@@]3(F)[C@@H](O)C[C@@]21C [fluticasone propionate],Actual Amount,"[6]; Acid (0.1N HCl, 1 hour)",12.1791 µg/mL
same,Actual Amount,"[6]; Base (0.1N NaOH, 1 hour)",11.7484 µg/mL
same,Actual Amount,[6]; Control,12.5695 µg/mL
same,Actual Amount,"[6]; Heat (60° C., 3 days)",12.0739 µg/mL
same,Actual Amount,"[6]; Light (white light, 3 days)",11.6609 µg/mL
same,Actual Amount,"[6]; Peroxide (3% H2O2, 1 hour)",16.4961 µg/mL
same,Peak Area FP,[7]; Acid,2.377
same,Peak Area RRT = 0.32,[7]; Acid,0.033
same,Peak Area RRT = 0.33,[7]; Acid,no peak
same,Peak Area RRT = 1.17,[7]; Acid,0.221
same,Total MFM-Related Area,[7]; Acid,2.631
same,Peak Area FP,[7]; Base,2.395
same,Peak Area RRT = 0.32,[7]; Base,0.032
same,Peak Area RRT = 0.33,[7]; Base,no peak
same,Peak Area RRT = 1.17,[7]; Base,0.166
same,Total MFM-Related Area,[7]; Base,2.593
same,Peak Area FP,[7]; Control,2.607
same,Peak Area RRT = 0.32,[7]; Control,no peak
same,Peak Area RRT = 0.33,[7]; Control,0.012
same,Peak Area RRT = 1.17,[7]; Control,0.046
same,Total MFM-Related Area,[7]; Control,2.665
same,Peak Area FP,[7]; Heat,2.924
same,Peak Area RRT = 0.32,[7]; Heat,no peak
same,Peak Area RRT = 0.33,[7]; Heat,no peak
same,Peak Area RRT = 1.17,[7]; Heat,0.183
same,Total MFM-Related Area,[7]; Heat,3.107
same,Peak Area FP,[7]; Light,2.599
same,Peak Area RRT = 0.33,[7]; Light,no peak
same,Peak Area RRT = 1.17,[7]; Light,0.159
same,Total MFM-Related Area,[7]; Light,2.791
same,Peak Area FP,[7]; Peroxide,2.424
same,Peak Area RRT = 0.32,[7]; Peroxide,no peak
same,Peak Area RRT = 0.33,[7]; Peroxide,no peak
same,Peak Area RRT = 1.17,[7]; Peroxide,no peak
same,Total MFM-Related Area,[7]; Peroxide,2.424
C[C@]12CCC(=O)C=C1CC[C@@H]1[C@@H]2[C@@H](O)C[C@@]2(C)[C@H]1CC[C@]2(O)C(=O)CO [hydrocortisone],Biological Half Life,[2],8-12 Hours
C[C@]12C=CC(=O)C=C1CC[C@@H]1[C@@H]2[C@@H](O)C[C@@]2(C)[C@H]1CC[C@]2(O)C(=O)CO [prednisolone],Biological Half Life,[2],18-36 Hours
C[C@]12C=CC(=O)C=C1CC[C@H]1[C@@H]3C[C@@H](O)[C@](O)(C(=O)CO)[C@@]3(C)C[C@H](O)[C@@]12F [triamcinolone],Biological Half Life,[2],18-36 Hours

# From patent publication US20230277452A1, “COMPOSITIONS, DEVICES AND METHODS FOR TREATING NASAL, OTIC AND OTHER TISSUE INFECTION AND/OR INFLAMMATION” (priority 2020, published 2023)
